Experimental findings from patent EP0801527B1 (priority 1995, dated 1996) are described below.

Structures are written as SMILES. Like-named read-outs stand apart in the source and are kept apart here.

Assay [1] relates to synaptosomes from the striatal area of rat brain. The experiment in a line: [3H]-Dopamine release from striatal synaptosomes (continuous perfusion). It counts as cell-based, Sprague-Dawley rats. To be noted: for Emax: Rattus norvegicus; for EC50: rat striatal synaptosomes. The protocol:
Dopamine release was measured by preparing synaptosomes from the striatal area of rat brain obtained from Sprague-Dawley rats generally according to the procedures set forth by Nagy et al., J. Neurochem., Vol. 43, pp. 1114-1123 (1984). Striata from 4 rats were homogenized in 2 ml of 0.32M sucrose buffered with 5 mM HEPES (pH 7.5), using a glass-Teflon tissue grinder. The homogenate was diluted to 5 ml with additional homogenization solution and centrifuged at 1,000 x g for 10 min. This procedure was repeated on the new pellet and the resulting supernatant was centrifuged at 12,000 x g for 20 min. A 3 layer discontinuous Percoll gradient consisting of 16 percent, 10 percent and 7.5 percent Percoll in HEPES-buffered sucrose was made with the final pellet dispersed in the top layer. After centrifugation at 15,000 x g for 20 min., the synaptosomes were recovered above the 16 percent layer with a Pasteur pipette, diluted with 8 ml of perfusion buffer (128 mM NaCl, 2.4 mM KCl, 3.2 Mm CaCl2, 1.2 mM KH2PO4, 1.2 mM MgSO4, 25 mM HEPES pH 7.4, 10 mM dextrose, 1 mM ascorbate, 0.01 mM pargyline), and centrifuged at 15,000 x g for 20 min. The new pellet was collected and re-suspended in perfusion buffer. The synaptosome suspension was incubated for 10 min. at 37°C. [^3H]-Dopamine (Amersham, 40-60 Ci/mmol) was added to the suspension to give a final concentration of 0.1 uM, and the suspension was incubated for another 5 min. Using this method, 30 to 90 percent of the dopamine was taken up into the synaptosomes, as determined by scintillation counting following filtration through glass fiber filters soaked with 0.5 percent polyethyleneimine. A continuous perfusion system was used to monitor release following exposure to each ligand. Synaptosomes were loaded onto glass fiber filters (Gelman type A/E). Perfusion buffer was dripped onto the filters (0.2-0.3 ml/min.) and pulled through the filters with a peristaltic pump. Synaptosomes were washed with perfusion buffer for a minimum of 20 min. before addition of the ligand. After the addition of 0.2 ml of a solution containing various concentrations of ligand, the perfusate was collected into scintillation vials at 1 min. intervals and the dopamine released was quantified by scintillation counting. Peaks of radioactivity released above background were summed and the average basal release during that time was subtracted from the total.

Assay [2] deals with T1, muscle-like nicotinic receptors (Homo sapiens, UniProt P02708+P07510+Q07001).
T1 construct: Intact cells on dishes were used for functional studies; endogenous in cells; host or cells: TE671/RD human embryonal rhabdomyosarcoma cells
The experiment in a line: cell-based. Type of assay: cell-based. To be noted: for Emax: TE671/RD, read-out: Muscle Effect.

Assay [3] concerns the target T2, ganglionic-type neuronal nicotinic receptors (Rattus norvegicus, UniProt P04757+P12392).
T2 construct: Intact cells on dishes were used for functional studies; endogenous in cells; host or cells: PC12 rat pheochromocytoma cells
The experiment in a line: cell-based. To be noted: for Emax: PC-12, read-out: Ganglion Effect.

Assay [4] has as its target T3, high affinity CNS nicotinic receptors (Rattus norvegicus, UniProt P09483+P12390).
T3 construct: Brain membrane preparations were obtained from brain tissue of either males or females; from tissue; host or cells: rat (Sprague-Dawley) brain without cerebellum, membrane preparation
Briefly: biochemical. Type of assay: binding, Rats (Sprague-Dawley).

T1 sequence (P02708 21-457): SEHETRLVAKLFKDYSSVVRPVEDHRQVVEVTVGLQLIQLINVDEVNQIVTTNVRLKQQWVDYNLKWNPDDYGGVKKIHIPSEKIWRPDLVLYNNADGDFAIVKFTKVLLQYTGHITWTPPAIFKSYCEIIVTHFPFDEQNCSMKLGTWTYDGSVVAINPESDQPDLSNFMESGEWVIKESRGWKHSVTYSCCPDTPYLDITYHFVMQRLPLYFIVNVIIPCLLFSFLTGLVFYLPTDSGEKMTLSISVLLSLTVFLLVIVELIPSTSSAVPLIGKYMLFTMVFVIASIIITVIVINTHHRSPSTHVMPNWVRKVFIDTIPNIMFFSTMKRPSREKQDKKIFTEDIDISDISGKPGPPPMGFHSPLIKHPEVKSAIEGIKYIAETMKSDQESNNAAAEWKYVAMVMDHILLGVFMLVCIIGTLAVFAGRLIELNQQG
T1 sequence (P07510 23-517): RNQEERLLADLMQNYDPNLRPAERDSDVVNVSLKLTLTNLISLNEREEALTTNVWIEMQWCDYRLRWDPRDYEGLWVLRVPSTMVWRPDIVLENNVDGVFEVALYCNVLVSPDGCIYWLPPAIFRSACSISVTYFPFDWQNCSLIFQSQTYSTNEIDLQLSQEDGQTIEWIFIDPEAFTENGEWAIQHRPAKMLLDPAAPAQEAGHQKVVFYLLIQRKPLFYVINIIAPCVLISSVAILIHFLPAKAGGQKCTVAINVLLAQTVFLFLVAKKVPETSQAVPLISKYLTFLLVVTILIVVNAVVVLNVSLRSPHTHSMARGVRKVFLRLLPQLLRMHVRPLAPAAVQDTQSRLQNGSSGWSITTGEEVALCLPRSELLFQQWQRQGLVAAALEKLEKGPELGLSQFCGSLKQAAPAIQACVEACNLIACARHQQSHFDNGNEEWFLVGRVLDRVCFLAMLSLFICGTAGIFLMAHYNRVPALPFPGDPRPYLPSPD
T1 sequence (P11230 24-501, further chain): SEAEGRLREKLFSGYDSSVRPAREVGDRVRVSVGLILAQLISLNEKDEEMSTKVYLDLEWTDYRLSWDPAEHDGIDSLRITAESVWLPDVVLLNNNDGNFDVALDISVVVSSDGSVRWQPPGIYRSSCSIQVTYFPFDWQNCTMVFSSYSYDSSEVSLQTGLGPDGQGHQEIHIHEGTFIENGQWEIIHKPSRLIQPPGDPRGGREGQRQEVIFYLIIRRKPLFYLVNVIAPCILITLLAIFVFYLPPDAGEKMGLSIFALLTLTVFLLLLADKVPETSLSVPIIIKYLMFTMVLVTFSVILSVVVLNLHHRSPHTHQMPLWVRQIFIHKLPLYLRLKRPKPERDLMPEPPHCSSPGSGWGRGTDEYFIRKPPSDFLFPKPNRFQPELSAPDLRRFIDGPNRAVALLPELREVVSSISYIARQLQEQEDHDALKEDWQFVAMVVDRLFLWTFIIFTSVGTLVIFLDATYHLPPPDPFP
T1 sequence (Q07001 22-517): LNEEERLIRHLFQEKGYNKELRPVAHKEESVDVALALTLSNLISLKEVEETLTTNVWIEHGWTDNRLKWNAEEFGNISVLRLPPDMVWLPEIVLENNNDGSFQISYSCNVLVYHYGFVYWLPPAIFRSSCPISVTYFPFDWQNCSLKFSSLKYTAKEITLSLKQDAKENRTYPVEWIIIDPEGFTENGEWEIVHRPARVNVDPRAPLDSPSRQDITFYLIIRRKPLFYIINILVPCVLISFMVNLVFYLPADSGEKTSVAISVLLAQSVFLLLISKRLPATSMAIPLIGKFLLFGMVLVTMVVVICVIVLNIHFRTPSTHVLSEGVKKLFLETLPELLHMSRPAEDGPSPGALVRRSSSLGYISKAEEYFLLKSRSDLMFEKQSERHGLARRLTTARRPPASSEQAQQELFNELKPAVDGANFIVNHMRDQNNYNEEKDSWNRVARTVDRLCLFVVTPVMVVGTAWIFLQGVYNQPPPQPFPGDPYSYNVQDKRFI
T2 sequence (P04757 26-499): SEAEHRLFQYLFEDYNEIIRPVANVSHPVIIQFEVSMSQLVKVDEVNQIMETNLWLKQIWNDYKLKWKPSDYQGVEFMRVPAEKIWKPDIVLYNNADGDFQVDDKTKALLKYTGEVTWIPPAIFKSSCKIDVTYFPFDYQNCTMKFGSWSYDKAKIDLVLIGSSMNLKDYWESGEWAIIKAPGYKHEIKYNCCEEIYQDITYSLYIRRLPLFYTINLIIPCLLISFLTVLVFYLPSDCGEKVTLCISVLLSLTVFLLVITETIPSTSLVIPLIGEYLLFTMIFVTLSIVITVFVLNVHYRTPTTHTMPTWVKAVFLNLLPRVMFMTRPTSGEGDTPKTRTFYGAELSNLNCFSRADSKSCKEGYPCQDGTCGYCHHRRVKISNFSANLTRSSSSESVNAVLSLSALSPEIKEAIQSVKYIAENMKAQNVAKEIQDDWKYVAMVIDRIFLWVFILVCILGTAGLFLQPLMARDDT
T2 sequence (P12392 21-495): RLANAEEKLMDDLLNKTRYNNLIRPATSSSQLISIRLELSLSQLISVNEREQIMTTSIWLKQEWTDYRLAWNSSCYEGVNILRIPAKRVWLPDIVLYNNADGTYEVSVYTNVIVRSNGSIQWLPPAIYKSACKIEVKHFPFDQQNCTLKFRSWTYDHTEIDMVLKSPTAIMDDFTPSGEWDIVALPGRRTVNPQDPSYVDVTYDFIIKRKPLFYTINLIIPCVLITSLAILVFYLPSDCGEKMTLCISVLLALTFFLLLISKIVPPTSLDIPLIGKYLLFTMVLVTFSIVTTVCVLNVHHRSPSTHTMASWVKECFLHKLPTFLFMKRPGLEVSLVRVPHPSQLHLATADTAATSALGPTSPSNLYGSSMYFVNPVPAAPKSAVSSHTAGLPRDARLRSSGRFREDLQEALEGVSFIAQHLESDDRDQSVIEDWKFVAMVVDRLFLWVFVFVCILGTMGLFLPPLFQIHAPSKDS
T3 sequence (P09483 31-630): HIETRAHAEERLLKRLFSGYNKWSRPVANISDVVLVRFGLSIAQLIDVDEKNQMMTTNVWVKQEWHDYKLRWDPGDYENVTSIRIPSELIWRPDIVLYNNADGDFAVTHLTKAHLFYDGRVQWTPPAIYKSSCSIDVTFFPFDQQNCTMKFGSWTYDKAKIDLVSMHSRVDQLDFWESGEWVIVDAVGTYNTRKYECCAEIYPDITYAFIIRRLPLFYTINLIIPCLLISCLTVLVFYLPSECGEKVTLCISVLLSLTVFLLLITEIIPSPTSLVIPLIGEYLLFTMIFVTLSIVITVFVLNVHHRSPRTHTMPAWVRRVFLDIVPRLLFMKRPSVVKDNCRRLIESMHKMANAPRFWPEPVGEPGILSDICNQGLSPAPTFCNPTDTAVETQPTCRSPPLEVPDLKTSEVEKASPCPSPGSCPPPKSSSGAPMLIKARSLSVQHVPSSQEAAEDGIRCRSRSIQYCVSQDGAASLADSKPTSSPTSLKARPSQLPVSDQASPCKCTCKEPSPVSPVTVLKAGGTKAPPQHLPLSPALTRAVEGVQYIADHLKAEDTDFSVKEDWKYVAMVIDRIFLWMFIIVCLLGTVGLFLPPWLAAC
T3 sequence (P12390 25-500): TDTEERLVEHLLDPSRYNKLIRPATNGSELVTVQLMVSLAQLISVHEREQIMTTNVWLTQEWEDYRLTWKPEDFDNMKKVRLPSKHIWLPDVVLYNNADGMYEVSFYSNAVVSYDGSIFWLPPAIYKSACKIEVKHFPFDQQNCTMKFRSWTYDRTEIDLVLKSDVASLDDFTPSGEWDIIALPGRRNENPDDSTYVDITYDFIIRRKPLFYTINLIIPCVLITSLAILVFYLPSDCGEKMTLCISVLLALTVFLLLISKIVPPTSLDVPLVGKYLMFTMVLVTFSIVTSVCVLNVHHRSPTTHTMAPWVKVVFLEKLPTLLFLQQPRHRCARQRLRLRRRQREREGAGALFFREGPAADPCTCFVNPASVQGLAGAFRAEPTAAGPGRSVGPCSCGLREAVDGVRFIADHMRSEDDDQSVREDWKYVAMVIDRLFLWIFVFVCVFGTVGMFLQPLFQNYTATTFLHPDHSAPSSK

The term EC50 denotes the midpoint of the concentration-response curve. A low value points to higher potency in that assay. On to `NCC/C=C/c1cncnc1` [Sample No. 1, (E)-4-(5-pyrimidinyl)-3-butene-1-amine monofumarate], for which, in assay [1], the Emax was found to be 113% and the EC50 is 4360 nM.

On to `CNCC/C=C/c1cncnc1` [Sample No. 2, (E)-N-methyl-4-(5-pyrimidinyl)-3-butene-1-amine], for which the results for the Emax in assay [1], in assay [2] and in assay [3] were 77%, 4% and 1%, respectively. This compound also gave a concentration giving a half-maximal response (EC50) in assay [1] of 5800 nM.

In the case of `COc1cncc(/C=C/CCN)c1` [Sample No. 3, (E)-4-[3-(5-methoxypyridin)yl] -3-butene-1-amine monofumarate], the Emax in assay [1] was determined as 95%; in assay [2], 0%; in assay [3], 0%. In assay [1], this compound gave an EC50 of 4000 nM.

As a reminder, the Ki is a measure of affinity in units of concentration, obtained from inhibition or displacement. Lower therefore signals a stronger hold on the target. `CNCCC#Cc1cccnc1` [Sample No. 4, N-Methyl-4-(3-pyridinyl)-3-butyne-1-amine]: the affinity in assay [4] corresponds to a Ki of 58 nM. Further, in assay [1], the Emax turned out to be 87% and the EC50 came to 8350 nM. In assay [2] (te671/rd cells), the “Muscle Effect” value was determined as 7 % nicotine. For the same compound, the “Ganglion Effect” value in assay [3] (pc12 cells) is reported as 59 % nicotine.

As to `CNCC/C=C\c1cccnc1` [Sample No. 5, (Z) metanicotine], the “Dopamine Release Emax” value in assay [1] stood at 88 %nicotine.

With `CNCC/C=C/c1ccc(C)nc1` [Sample No. 6, (E)-N-methyl-4-[3-(6-methylpyrindin)yl]-3-butene-1-amine], the Emax was 60% in assay [1], 2% in assay [2] and 4% in assay [3]. A half-maximal effect in assay [1] (EC50) was put at 219 nM.

Consider `CNCCCCc1cccnc1` [Sample No. 7, N-methyl-(3-pyridinyl)-butane-1-amine], for which the affinity in assay [4] corresponds to a Ki of 910 nM. The same compound had an Emax in assay [1] of 72%.

On to `CNCC/C=C/c1cccnc1` [Sample No. 8, (E)-metanicotine, reference compound], for which, in assay [1], the “Dopamine Release Emax” value is 80 %nicotine. For the same compound, the “Muscle Effect” value in assay [2] is on record as 15 % nicotine.

Regarding `CN1CCC[C@H]1c1cccnc1` [Sample No. C-1, (S)-(-)-nicotine, reference compound], in assay [1], the Emax was found to be 100% and the EC50 is 115 nM.
